We go through 4 compounds from publication PMC6877086, “Novel charged sodium and calcium channel inhibitor active against neurogenic inflammation” (eLife, 2019).

Holding throughout (assay type): cell-based
Experiment [1] has as its target T1, Nav1.7 (Homo sapiens, UniProt Q15858).
T1 construct: gene SCN9A; human Nav1.7 stably expressed in HEK cell line
In words: whole-cell patch clamp, use-dependent inhibition at […] Hz.

In experiment [2] the target is T1, Nav1.7. The experiment can be described thus: whole-cell patch clamp, external application; KI estimated from shift in channel availability.
Experiment [3] concerns the target T2, Cav2.2 (Rattus norvegicus, UniProt Q02294).
T2 construct: gene Cacna1b; rat Cav2.2 stably expressed with β3 and α2δ−1 subunits in tsA201 cell line; with β3 subunit and α2δ−1 subunit
In words: whole-cell patch clamp, Ba2+ current, external and internal application. Background: The patch-clamp technique gives a direct electrical read-out from membranes.

Experiment [4] has as its target T2, Cav2.2. In words: whole-cell patch clamp, Ba2+ current.

Where a name gives a salt, the structure may show the parent alone.

As a reminder, the Kd is a measure of binding affinity in units of concentration. In general, inhibition refers to the relative decrease from the control value, in per cent. Read a low inhibition as little suppression.

T1 sequence (Q15858 whole entry): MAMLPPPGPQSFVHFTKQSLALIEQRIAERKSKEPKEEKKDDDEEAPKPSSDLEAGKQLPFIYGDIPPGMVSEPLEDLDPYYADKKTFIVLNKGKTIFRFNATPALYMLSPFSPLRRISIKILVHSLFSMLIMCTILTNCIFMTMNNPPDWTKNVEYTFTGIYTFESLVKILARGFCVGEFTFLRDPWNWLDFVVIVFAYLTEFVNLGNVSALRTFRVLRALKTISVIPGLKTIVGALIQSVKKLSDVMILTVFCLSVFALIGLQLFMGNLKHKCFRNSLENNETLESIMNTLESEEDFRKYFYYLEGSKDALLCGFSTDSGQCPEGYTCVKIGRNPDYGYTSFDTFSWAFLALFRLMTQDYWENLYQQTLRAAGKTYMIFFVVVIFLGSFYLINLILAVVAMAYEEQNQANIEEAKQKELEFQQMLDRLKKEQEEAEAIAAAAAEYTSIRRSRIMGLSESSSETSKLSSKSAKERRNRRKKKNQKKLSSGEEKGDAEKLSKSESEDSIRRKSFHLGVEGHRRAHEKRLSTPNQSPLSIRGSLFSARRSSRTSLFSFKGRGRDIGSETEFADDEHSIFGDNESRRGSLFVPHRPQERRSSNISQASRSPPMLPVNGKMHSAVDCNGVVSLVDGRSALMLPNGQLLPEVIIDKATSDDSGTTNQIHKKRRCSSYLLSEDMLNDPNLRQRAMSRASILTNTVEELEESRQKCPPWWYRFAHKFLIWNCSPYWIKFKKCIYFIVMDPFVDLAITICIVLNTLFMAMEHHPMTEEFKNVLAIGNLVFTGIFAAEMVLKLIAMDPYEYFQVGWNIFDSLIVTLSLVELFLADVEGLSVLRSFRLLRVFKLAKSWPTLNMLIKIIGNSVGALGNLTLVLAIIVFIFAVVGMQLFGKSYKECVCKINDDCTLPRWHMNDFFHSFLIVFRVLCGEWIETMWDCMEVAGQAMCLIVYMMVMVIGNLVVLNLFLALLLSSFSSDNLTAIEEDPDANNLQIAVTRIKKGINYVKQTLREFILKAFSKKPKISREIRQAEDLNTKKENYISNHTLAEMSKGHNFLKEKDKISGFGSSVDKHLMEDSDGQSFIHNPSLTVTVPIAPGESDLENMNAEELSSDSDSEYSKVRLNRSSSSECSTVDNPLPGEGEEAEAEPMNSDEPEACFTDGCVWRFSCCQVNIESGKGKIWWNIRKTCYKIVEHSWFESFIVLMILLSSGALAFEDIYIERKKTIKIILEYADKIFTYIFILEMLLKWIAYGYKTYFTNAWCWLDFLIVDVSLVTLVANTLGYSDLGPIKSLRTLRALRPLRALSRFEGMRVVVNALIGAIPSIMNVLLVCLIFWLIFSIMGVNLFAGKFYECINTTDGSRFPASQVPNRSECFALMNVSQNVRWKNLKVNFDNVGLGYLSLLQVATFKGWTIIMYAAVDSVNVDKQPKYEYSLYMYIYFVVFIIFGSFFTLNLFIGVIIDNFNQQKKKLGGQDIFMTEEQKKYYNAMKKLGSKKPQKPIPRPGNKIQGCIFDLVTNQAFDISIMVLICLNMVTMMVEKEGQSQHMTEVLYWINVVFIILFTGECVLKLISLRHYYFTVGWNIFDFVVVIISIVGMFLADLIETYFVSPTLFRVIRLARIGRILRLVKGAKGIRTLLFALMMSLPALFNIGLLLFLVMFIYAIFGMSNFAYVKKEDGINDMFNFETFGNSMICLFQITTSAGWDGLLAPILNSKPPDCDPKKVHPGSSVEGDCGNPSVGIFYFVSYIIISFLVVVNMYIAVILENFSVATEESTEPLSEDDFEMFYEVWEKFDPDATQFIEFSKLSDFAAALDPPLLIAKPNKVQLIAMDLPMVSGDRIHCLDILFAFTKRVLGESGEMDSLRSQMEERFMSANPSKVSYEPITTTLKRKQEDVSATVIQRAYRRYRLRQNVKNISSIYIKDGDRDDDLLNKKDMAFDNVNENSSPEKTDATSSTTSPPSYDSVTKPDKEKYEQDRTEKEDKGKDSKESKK

With `CCCCN1CCCCC1C(=O)Nc1c(C)cccc1C` (centres unmarked) [bupivacaine], the “whole-cell patch clamp, use-dependent inhibition at 10 Hz” value in experiment [1] is recorded as “current reduced to 22 ± 4% (no drug 77 ± 3%) by 10”.

Take `COc1ccc(CNC(=O)C(CSCC2CCCC2)[N+](C)(C)CCC(C)(C)C)cc1` (centres unmarked) [CNCB-2, [2-Cyclopentylmethylsulfanyl-1-(4-methoxy-benzylcarbamoyl)-ethyl]−(3,3-dimethyl-butyl)-dimethyl-ammonium, chloride salt]: the Kd in experiment [2] is 710 nM. In addition, in experiment [3], the “whole-cell patch clamp, Ba2+ current, external and internal application” value is given as “current reduced to 5 ± 2% of control by 100”.

With `COc1ccc(CNC(=O)C(CSCC2CCCC2)NCCC(C)(C)C)cc1` (centres unmarked) [NNCB-2, 3-Cyclopentylmethylsulfanyl-2-(3,3-dimethyl-butylamino)-N-(4-methoxy-benzyl)-propionamide], the inhibition at 10 µM in experiment [4] is about 60%.

Take `CCN(CC)CC(=O)Nc1c(C)cccc1C` [lidocaine]: in experiment [1], the “whole-cell patch clamp, use-dependent inhibition at 10 Hz” value is reported as “current reduced to 57 ± 7% of control (no drug 77 ± 3%) by 30”.
